Measurements as given in patent US6440990B1, “O-alkylated rapamycin derivatives and their use, particularly as immunosuppressants” (Novartis AG, priority 1992, dated 2002).

Legend:
[1] = test system: interleukin-6 (IL-6)-dependent mouse hybridoma cell line; conditions: cited from earlier work
[2] = test system: Balb/c spleen cells stimulated with irradiated CBA spleen cells; conditions: cited from earlier work
IL-2 transcription = conditions: IL-2 reporter gene assay; cited from earlier work
[3] = Standard in vitro assays of immunosuppressivity in comparison to FK506 and rapamycin; format: cell-based
Source text: This can be shown in standard in vitro assays in comparison to FK506 and rapamycin. […] Nonimmunosuppressivity can also be shown in the in vivo models 1-7 above.

Compound	inhibition of IL-6 dependent T-cell proliferation (in words) [1]	inhibition of the mixed lymphocyte reaction (in words) [2]	inhibition of IL-2 transcription (in words) (IL-2 transcription)	immunosuppressivity (in words) [3]
Rapamycin	strongly inhibits	very potent inhibitors	not active	–
CO[C@H]1C[C@@H]2CC[C@@H](C)[C@@](O)(O2)C(=O)C(=O)N2CCCC[C@H]2C(=O)O[C@H]([C@H](C)C[C@@H]2CC[C@@H](O)[C@H](OC)C2)CC(=O)[C@H](C)/C=C(\C)[C@@H](OC)[C@@H](OC)C(=O)[C@H](C)C[C@H](C)/C=C/C=C/C=C/1C [Example 21, 28-O-Methyl-rapamycin]	–	–	–	not immunosuppressive
